This is an account of results in US6130333A, “Bicyclic imidazolyl derivatives as phosphodiesterase inhibitors, pharmaceutical compositions and method of use” (Monsanto Company, priority 1998, dated 2000).

SMILES strings stand for the structures.

For assay [1], the system named is ca/calmodulin dependent cGMP PDE from bovine aorta. In words: Assay for inhibition of calcium/calmodulin dependent cGMP phosphodiesterase enzyme (Ca PDE). In kind it is biochemical. As to conditions: CaCl2 and calmodulin, averaged where multiple testing, read-out: Ca GMP PDE IC50. As for the experimental part:
(§1) Phosphodiesterase enzymes were partially purified according to the procedures reported by Francis, S. H., and Corbin, J. D. (1988) in Methods in Enzymology, Vol. 159, pp. 722-729, Academic Press, New York and Bradford, M. M. in (1976) Anal. Biochem. 72, 248-254. Specifically, the purification was accomplished by chromatography of a bovine aorta extract on a DEAE Tris-acryl column. The eluted fractions were assayed for the various specific activities. The specific enzyme activities were pooled and concentrated. […] The cGMP-specific phosphodiesterase was assayed in the presence of 1 μM cGMP. The calcium/calmodulin dependent enzyme activity was assayed in the presence of 1 μM cGMP, 0.5 units calmodulin (Sigma P-0270, phosphodiesterase 3',5'-cyclic nucleotide activator from bovine heart) per ml of reaction, and 100 μM Ca^2+.
(§2) Enzyme assays were performed in Millipore 96-well polystyrene microtiter plates in a total assay volume of 100 μL of buffer containing 100 mM Tris-HCl and 5 mM MgSO4 at pH 7.5. cGMP PDE inhibitor compounds were dissolved in DMSO at a concentration of 10 mM and then diluted into the assay to give a final concentration of DMSO in the assay of 1% which has no effect on the enzymatic reaction. The reaction mixture consisted of 10 μL diluted inhibitor, 10 μL of a solution of the appropriate phosphodiesterase enzyme preparation, and 60 μL buffer. The reaction was initiated by the addition 20 μL of 5μM [3H]cGMP (100,000 DPM/well). The tritiated cGMP nucleotides were obtained from DuPont/New England Nuclear Lifesciences Company, Boston, Mass. as an ammonium salt (NET-554 guanosine 3',5'-cyclic phosphate, [8,5'-^3 H]).
(§3) After a 30 minute incubation at room temperature the reaction was stopped by the addition of 50 μL of 210 mM ZnSO4 followed by an addition of 50 μL of freshly prepared 19 mM Ba(OH)2 to specifically precipitate the radiolabled 5'-nucleotide product. The Zn--Ba precipitate was filtered onto glass-fiber filters mats (Wallac, Filtermat A, 102×258 mm) using an automated 96-well harvester (TOMTEC Harvester 96®, MACH II). The precipitate was washed from the microtiterplate to the filtermat with a total volume of 1 ml/well of a wash buffer containing 1 mM NaOH and 100 mM NaCl. The filtermat were dried in a microwave oven and placed in a Wallac sample bag for use with the 1205 BetaPlate™. 10 ml of Beta Plate Scint (LKB) was added to the bag and allowed to diffuse throughout the filter. The radiolabel was then quantitated using a LKB/Wallac 1205 BetaPlate™ scintillation counter. Inhibitor dilution curves were created using six concentrations of the inhibitor in duplicate. IC50 values were determined from a linear regression of a Log Logit transformation of the data. M&B 22,948 (2-o-propoxyphenyl-8-azapurin-6-one) was used as the standard control inhibitor for cGMP PDE and was prepared according to U.S. Pat. No. 3,819,631.
The procedure for the calcium/calmodulin dependent cGMP PDE assay was identical to the cGMP-specific phosphodiesterase assay described above, except for the following changes noted below. Partially purified ca/calmodulin dependent cGMP PDE enzyme from bovine aorta was collected as a pool based upon its elution relative to cAMP-dependent PDE and conformational changes introduced by the addition of 1 mM EDTA for 1 hour at 4° C. It was then diluted 1:1800 in assay buffer containing 143 μM CaCl2 and 0.7 units of calmodulin/ml and 70 μl of this enzyme solution was used per assay well. The standard control used was Vinpocetine purchased from Gedeon Richter LTD, Budapest, Hungary.

In assay [2] the test system is cAMP PDE from bovine aorta. In words: Assay for inhibition of cAMP PDE. As to conditions: bovine aorta enzyme; [3H]cAMP substrate; averaged where multiple testing. In kind it is biochemical. As for the experimental part: as §1, §2, §3
The procedure for the inhibition of cAMP PDE was identical to the procedure for the cGMP-specific phosphodiesterase assay above, except that partially purified cAMP PDE from bovine aorta was collected as pooled from the DEAE tris-acryl column based upon its elution relative to cGMP-specific PDE as well as its specificity for cAMP by hydrolysis and then used. The partially purified cAMP PDE was stored as a concentrated solution at 4° C. This enzyme was diluted 1:30 with an assay buffer prior to use. A substrate solution of [^3 H]cAMP was added to 5 μM adenosine 3', 5'-cyclic monophosphate sodium salt in assay buffer to give a solution with a specific activity of 1000 CPM/pmole (100,000 CPM/20 μl). The reaction was initiated by the addition 20 μL of 5 μM [3H]cAMP (100,000 DPM/well). The tritiated cAMP nucleotides were obtained from DuPont/New England Nuclear Lifesciences Company, Boston, Mass. as an ammonium salt (NET-275 adenosine 3',5'-cyclic phosphate, (2,8-^3 H]). Ro 20-1724 was used as the standard control (obtained from Hoffmann LaRoche, Nutley, N.J.).

Assay [3] addresses T1, cGMP-specific PDE from bovine aorta (Bos taurus, UniProt Q28156).
T1 construct: chromatography of a bovine aorta extract on a DEAE Tris-acryl column; from tissue; host or cells: bovine aorta
In words: Assay for inhibition of cGMP PDE. In kind it is biochemical. Particulars: bovine aorta enzyme; 30 minute incubation at room temperature, pH 7.5; averaged where multiple testing. As for the experimental part:
as §1
The partially purified cGMP-specific PDE from bovine aorta was stored as a concentrated solution in glycerol at 4° C. Prior to use it was diluted approximately 1:3000 with an assay buffer containing 100 mM Tris-HCl and 5 mM MgSO4 at pH 7.5 to give approximately 10% conversion of cGMP substrate to GMP in a 30 minute reaction time.
as §2, §3

Assay [4] is described as follows: In vivo blood pressure measurement in rats (femoral artery catheter). Also noted: species or system male Sprague Dawley rats. As to conditions: intraperitoneal injection. From the text: The FIGURE is a plot of mean blood pressure (mmHg) versus time (min) for anesthetized male Sprague Dawley rats (Charles River Laboratories, Wilmington, Mass.) following administration of a cyclic GMP phosphodiesterase inhibitor of this in vention by intraperitoneal injection.
Polyethylene catheters (PE50) were inserted into the femoral artery and vein of anesthetized male Sprague Dawley rats (Charles River Laboratories,Wilmington, Mass.) in order to monitor the mean arterial pressure and administer test compounds. Following surgery, the animals were place in individual restraining cages and allowed to regain consciousness. Infusion of 0.9% sodium chloride via the femoral vein (0.07 ml/kg/min) was begun and continued throughout the study period. Observations were begun approximately 90 minutes after the initiation of infusion to allow the animals to fully regain consciousness. Blood pressure was continuously monitored via the femoral artery with a pressure transducer (type 041-500-503; Cobe, Lakewood, Colo.) connected to a Grass Model 7E polygraph. Mean arterial pressure and heart rates were recorded at 3 minute intervals by a computerized data acquisition system. Cyclic GMP phosphodiesterase inhibitor (Example 41) was administered as an intraperitoneal injection, alternatively the inhibitor could have been administered directly into the catheter as an intravenous bolus.

For assay [5] the following is noted: rats; McMahon et al. 1989; cited from earlier work.

`c1ccc(Cn2c(-c3ccc4c(c3)OCO4)nc3ccccc32)cc1` [Example 25, 2-(1,3-Benzodioxol-5-yl)-1-phenylmethyl-1H-benzimidazole]: the values for the IC50 in assay [1], in assay [2] and in assay [3] were 75 µM, 12.4 µM and 0.011 µM, respectively.
With `c1ccc2cc(Cn3c(-c4ccc5c(c4)OCO5)nc4ccccc43)ccc2c1` [Example 29, 2-(1,3-Benzodioxol-5-yl)-1-(2-naphthalenylmethyl)-1H-benzimidazole], the concentration for half-maximal inhibition (IC50) – broadly, the concentration at which inhibition is half-maximal – in assay [1] was determined as 60 µM; in assay [2], 5.2 µM; in assay [3] it was 0.024 µM.
As to `Fc1ccccc1Cn1c(-c2ccc3c(c2)OCO3)nc2ccccc21` [Example 30, 2-(1,3-Benzodioxol-5-yl)-1-(2-fluorophenylmethyl)-1H-benzimidazole], the IC50 was greater than 100 µM in assay [1], greater than 100 µM in assay [2] and 0.004 µM in assay [3].
On to `c1ccc2c(c1)nc(-c1ccc3c(c1)OCO3)n2Cc1ccc2c(c1)OCO2` [Example 41, 2-(1,3-Benzodioxol-5-yl)-1-[(1,3-benzodioxol-5-yl)methyl]-1H-benzimidazole], for which the half-maximal inhibitory concentration (IC50) in assay [1] was 64.5 µM; in assay [2], 11.9 µM; in assay [3], 0.003 µM. Moreover, the “reduction in blood pressure” value in assay [4] is given as “A reduction in blood pressure was observed”.
Take `Cc1ccc(-c2nc3ccccc3n2Cc2ccc3c(c2)OCO3)cc1` [Example 42, 1-[(1,3-benzodioxol-5-yl)methyl]-2-(4-methylphenyl)-1H-benzimidazole]: the IC50 in assay [1] came out at 60 µM; in assay [2], 18 µM; in assay [3], 0.009 µM.
On to `c1ccc(Cn2c(-c3ccc4c(c3)OCO4)nc3cccnc32)cc1` [Example 43, 2-(1,3-Benzodioxol-5-yl)-3-(phenylmethyl)-3H-imidazo[4,5-b]pyridine], for which the IC50 is greater than 100 µM in assay [1], 7.3 µM in assay [2] and 0.003 µM in assay [3].
For `CCCOc1ccccc1-c1nc2[nH]nnc2c(=O)[nH]1` [M&B 22,948, 2-o-propoxyphenyl-8-azapurin-6-one], in assay [5], the mean arterial pressure result is “dose-dependent reduction in the mean arterial pressure” and the “urinary cGMP (and not cAMP) levels” value is on record as “increase in urinary cGMP (and not cAMP) levels”.
